{"source": "paper PMC8765048", "about": "(JCI Insight, 2022)", "key": {"[1]": {"test_system": "SARS-CoV-2 B.1.351 (Beta)", "assay": "microbe, parasite or virus in culture", "assay_type": "cell-based"}, "[2]": {"test_system": "Vero E6 (grivet kidney epithelial)", "assay": "CellTox Green Cytotoxicity Assay", "conditions": "ratio > 1 cytostatic, ≤ 1 cytotoxic"}, "[3]": {"test_system": "HepG2 (human hepatocarcinoma)", "assay": "CellTox Green Cytotoxicity Assay", "conditions": "ratio > 1 cytostatic, ≤ 1 cytotoxic"}, "[4]": {"assay": "CellTiter-Glo cell viability assay", "assay_type": "cell-based", "conditions": "Primary human hepatocytes"}, "SARS-CoV-2": {"test_system": "SARS-CoV-2", "assay": "microbe, parasite or virus in culture", "assay_type": "cell-based"}, "[5]": {"assay": "CellTiter-Glo cell viability assay", "assay_type": "cell-based", "conditions": "human, A549 cells; A549, 72 h"}, "[6]": {"test_system": "SARS-CoV-2 B.1.351 (Beta)", "assay": "microbe, parasite or virus in culture", "assay_type": "cell-based", "remark": "listed apart in the source"}, "human cancer patients": {"test_system": "human cancer patients", "conditions": "40 human cancer patients, cited from earlier work"}, "[7]": {"test_system": "SARS-CoV-2 B.1.427 (Epsilon)", "assay": "microbe, parasite or virus in culture", "assay_type": "cell-based"}, "[8]": {"test_system": "Calu-3 (human lung adenocarcinoma)", "assay": "CellTox Green Cytotoxicity Assay", "conditions": "ratio > 1 cytostatic, ≤ 1 cytotoxic"}, "[9]": {"test_system": "SARS-CoV-2 B.1.1.7 (Alpha)", "assay": "microbe, parasite or virus in culture", "assay_type": "cell-based"}, "[10]": {"assay": "CellTiter-Glo cell viability assay", "assay_type": "cell-based", "conditions": "human, HEK293T cells"}, "[11]": {"test_system": "Lassa virus, Ebola virus, Marburg virus, cowpox virus and vaccinia virus", "conditions": "Vero E6 and Huh-7 cells; cited from earlier work"}, "[12]": {"assay": "CellTiter-Glo cell viability assay", "assay_type": "cell-based", "conditions": "human, HepG2 cells; HepG2, 72 h"}, "grivets": {"test_system": "grivets", "conditions": "10 days at 1.6 mg/kg/d and 28 days at 0.4 mg/kg/d; cited from earlier work"}, "SARS-CoV-2 WA1": {"test_system": "SARS-CoV-2 WA1", "assay": "microbe, parasite or virus in culture", "assay_type": "cell-based"}, "multiple cell types [13]": {"test_system": "multiple cell types", "assay": "CellTiter-Glo cell viability assay, average of 8 cell types", "assay_type": "cell-based", "conditions": "average ± SEM, n = 8 cell types"}, "[14]": {"assay": "CellTiter-Glo cell viability assay, average of 8 cell types", "assay_type": "cell-based", "conditions": "human (7 cell types) and grivet (Vero E6), average ± SEM, n = 8 cell types"}, "[15]": {"test_system": "SARS-CoV-2 B.1.429 (Epsilon)", "assay": "microbe, parasite or virus in culture", "assay_type": "cell-based"}, "[16]": {"test_system": "SARS-CoV-2 B.1.429 (Epsilon)", "assay": "microbe, parasite or virus in culture", "assay_type": "cell-based", "remark": "listed apart in the source"}, "[17]": {"test_system": "SARS-CoV-2 B.1.427 (Epsilon)", "assay": "microbe, parasite or virus in culture", "assay_type": "cell-based", "remark": "listed apart in the source"}, "SARS-CoV-2 P.1 (Gamma)": {"test_system": "SARS-CoV-2 P.1 (Gamma)", "assay": "microbe, parasite or virus in culture", "assay_type": "cell-based"}, "multiple cell types [18]": {"test_system": "multiple cell types", "assay": "CellTox Green Cytotoxicity Assay, average of 6 cell types", "conditions": "average ± SEM, n = 6 cell lines"}, "[19]": {"conditions": "Severe acute respiratory syndrome coronavirus 2, Vero C1008, 18 h"}, "[20]": {"conditions": "Severe acute respiratory syndrome coronavirus 2, Calu-3, 48 h"}, "[21]": {"conditions": "Severe acute respiratory syndrome coronavirus 2, Vero C1008, 24 h"}, "[22]": {"conditions": "Severe acute respiratory syndrome coronavirus 2, Calu-3, 24 h"}, "[23]": {"conditions": "Severe acute respiratory syndrome coronavirus 2, Vero C1008, 48 h"}}, "note": "Read-outs that look alike come from different tables or passages of the source.", "data": [{"smiles": "NC(=O)c1cn([C@@H]2O[C@H](CO)[C@@H](O)[C@H]2O)c2ncnc(N)c12", "note": "[Sangivamycin, sangivamycin]", "values": [{"measurement": "SI (selectivity index, CC50/IC50)", "setting": "[1]; B.1.351 (Beta), Vero E6 cells", "value": ">10.5"}, {"measurement": "IC50", "setting": "[1]; [19]", "value": 57.4, "unit": "nM"}, {"measurement": "IC90", "setting": "[1]; [19]", "value": 224, "unit": "nM"}, {"measurement": "Ratio CellTox Green/CellTiter-Glo", "setting": "[2]", "value": ">10.2"}, {"measurement": "Ratio CellTox Green/CellTiter-Glo", "setting": "[3]", "value": ">2.82"}, {"measurement": "CC50 at 72 h", "setting": "[4]", "value": 439, "unit": "nM"}, {"measurement": "SI calculated with the average CellTiter-Glo values", "setting": "SARS-CoV-2", "value": 13}, {"measurement": "average in vitro IC50 from all cell types tested, as dose", "setting": "SARS-CoV-2; 2-compartment model for a 70 kg adult, water volumes 42 L", "value": 0.01, "unit": "mg/kg"}, {"measurement": "IC50", "setting": "SARS-CoV-2; Severe acute respiratory syndrome coronavirus 2, n = 22, read-out: average IC50 for all viral testing in all cell lines and MOIs", "value": "47 ± 5", "unit": "nM"}, {"measurement": "SI calculated with the average CellTox Green", "setting": "SARS-CoV-2; average CC50 / average IC50", "value": "> 106"}, {"measurement": "CC50", "setting": "in vitro", "value": "> 5000", "unit": "nM"}, {"measurement": "CC50 at 72 h", "setting": "[5]", "value": 173, "unit": "nM"}, {"measurement": "SI (selectivity index, CC50/IC50)", "setting": "[6]; B.1.351 (Beta), Calu-3 cells", "value": ">10.1"}, {"measurement": "IC50", "setting": "[6]; [20]", "value": 59.4, "unit": "nM"}, {"measurement": "IC90", "setting": "[6]; [20]", "value": 135, "unit": "nM"}, {"measurement": "MTD", "setting": "human cancer patients; 0.1–2.83 mg/kg total dose", "value": "not reached"}, {"measurement": "tolerability", "setting": "human cancer patients; daily, thrice weekly, or weekly dosing, 0.1–2.83 mg/kg total dose", "value": "well tolerated"}, {"measurement": "activity against the disease (cancer)", "setting": "human cancer patients", "value": "inactive"}, {"measurement": "SI (selectivity index, CC50/IC50)", "setting": "[7]; B.1.427 (Epsilon), Vero E6 cells", "value": ">32.3"}, {"measurement": "IC50", "setting": "[7]; [21]", "value": 18.6, "unit": "nM"}, {"measurement": "IC90", "setting": "[7]; [21]", "value": 212, "unit": "nM"}, {"measurement": "Ratio CellTox Green/CellTiter-Glo", "setting": "[8]", "value": ">15.5"}, {"measurement": "SI (selectivity index, CC50/IC50)", "setting": "[9]; B.1.1.7 (Alpha), Calu-3 cells", "value": ">10.1"}, {"measurement": "IC50", "setting": "[9]; [22]", "value": 59.1, "unit": "nM"}, {"measurement": "IC90", "setting": "[9]; [22]", "value": 522, "unit": "nM"}, {"measurement": "CC50 at 72 h", "setting": "[10]", "value": 885, "unit": "nM"}, {"measurement": "IC50", "setting": "[11]", "value": "nanomolar range"}, {"measurement": "CC50 at 72 h", "setting": "[12]", "value": 1770, "unit": "nM"}, {"measurement": "tolerability", "setting": "grivets", "value": "tolerated"}, {"measurement": "IC90", "setting": "SARS-CoV-2 WA1; [23]", "value": "64 ± 3", "unit": "nM"}, {"measurement": "IC50", "setting": "SARS-CoV-2 WA1; Severe acute respiratory syndrome coronavirus 2, Vero C1008, 48 h, read-out: IC50", "value": "34 ± 1", "unit": "nM"}, {"measurement": "IC50", "setting": "SARS-CoV-2 WA1; Severe acute respiratory syndrome coronavirus 2, Vero C1008, read-out: average IC50", "value": "52 ± 13", "unit": "nM"}, {"measurement": "SI (selectivity index, CC50/IC50)", "setting": "SARS-CoV-2 WA1; WA1, Vero E6 cells", "value": 14.4}, {"measurement": "CC50", "setting": "multiple cell types [13]", "value": "607 ± 182", "unit": "nM"}, {"measurement": "CC50", "setting": "[14]", "value": "617 ± 181", "unit": "nM"}, {"measurement": "SI (selectivity index, CC50/IC50)", "setting": "[15]; B.1.429 (Epsilon), Vero E6 cells", "value": ">8.2"}, {"measurement": "IC50", "setting": "[15]; [23]", "value": 72.8, "unit": "nM"}, {"measurement": "IC90", "setting": "[15]; [23]", "value": 465, "unit": "nM"}, {"measurement": "SI (selectivity index, CC50/IC50)", "setting": "[16]; B.1.429 (Epsilon), Calu-3 cells", "value": ">8.4"}, {"measurement": "IC50", "setting": "[16]; [22]", "value": 71.1, "unit": "nM"}, {"measurement": "IC90", "setting": "[16]; [22]", "value": 234, "unit": "nM"}, {"measurement": "SI (selectivity index, CC50/IC50)", "setting": "[17]; B.1.427 (Epsilon), Calu-3 cells", "value": ">7.3"}, {"measurement": "IC50", "setting": "[17]; [22]", "value": 82.2, "unit": "nM"}, {"measurement": "IC90", "setting": "[17]; [22]", "value": 341, "unit": "nM"}, {"measurement": "SI (selectivity index, CC50/IC50)", "setting": "SARS-CoV-2 P.1 (Gamma); P.1 (Gamma), Vero E6 cells", "value": ">22.2"}, {"measurement": "IC50", "setting": "SARS-CoV-2 P.1 (Gamma); [21]", "value": 27.1, "unit": "nM"}, {"measurement": "IC90", "setting": "SARS-CoV-2 P.1 (Gamma); [21]", "value": 245, "unit": "nM"}, {"measurement": "Ratio CellTox Green/CellTiter-Glo, Average", "setting": "multiple cell types [18]", "value": ">12.2 ± 3.78"}]}]}
